Earlier results on one compound are cited in patent US6602521B1, “Multiplex drug delivery system suitable for oral administration” (Impax Pharmaceuticals, Inc., priority 1998, dated 2003).

Regarding `O=[N+]([O-])O[C@@H]1CO[C@H]2[C@@H]1OC[C@@H]2O` [Isosorbide mononitrate, 1,4:3,6-dihydro-D-glucitrol 5-nitrate], the “absorption from the gastrointestinal tract” value (gastrointestinal tract) is “rapidly and completely absorbed”. For the same compound, the rate of clearance entry (healthy young adults vs patients with various degrees of renal, hepatic, or cardiac dysfunction) is “the same”. The “first pass metabolism in the liver” value (in humans) was “not subject to first pass metabolism”. Further, the overall elimination half-life entry (in vivo) is “about 6 hours”.
